Results reported in patent US20250295799A1, “ANTIBODY-DRUG CONJUGATES TARGETING GLYPICAN-3 AND METHODS OF USE” (Zymeworks BC Inc., priority 2022, published 2025).

How the values were obtained:
[1] = tested on: SK-BR-3 (breast cancer); assay: In vitro cytotoxicity of camptothecin analogues (CellTiter-Glo); type: cell-based; conditions: Homo sapiens, SK-BR-3, 96 h, read-out: pIC50 SKBR-3 (converted)
Protocol: (§1) In vitro potency was assessed on multiple cancer cell lines: SK-BR-3 (breast cancer), SKOV-3 (ovarian cancer), Calu-3 (lung cancer), ZR-75-1 (breast cancer) and MDA-MB-468 (breast cancer). Serial dilutions of camptothecin analogues were prepared in RPMI 1640+10% FBS, and 20 μL of each dilution was added to 384-well plates. Cells cultured in log-phase growth were detached by brief incubation in 0.05% Trypsin and resuspended in respective culturing media at 20,000 cells/mL (with the exception of ZR-75 cells, which were resuspended at 10,000 cells/mL). 50 μL of cell suspension was then added to the plates containing test articles. Cells were incubated with test articles for 4 d at 37° C. (with the exception of ZR-75 cells, which were incubated for 5 d). Growth inhibition was assessed by CellTiter-Glo® (Promega Corporation, Madison, WI) and luminescence was measured on a plate reader. IC50 values were determined by GraphPad Prism (GraphPad Software, San Diego CA).

[2] = tested on: SKOV-3 (ovarian cancer); assay: as above; type: cell-based; conditions: Homo sapiens, SK-OV-3, 96 h, read-out: pIC50 SKOV-3 (converted)
Protocol: as §1

[3] = tested on: Calu-3 (lung cancer); assay: as above; type: cell-based; conditions: Homo sapiens, Calu-3, 96 h, read-out: pIC50 Calu-3 (converted)
Protocol: as §1

[4] = tested on: MDA-MB-468 (breast cancer); assay: as above; type: cell-based; conditions: Homo sapiens, MDA-MB-468, 96 h, read-out: pIC50 MDA-MB-468 (converted)
Protocol: as §1

[5] = tested on: ZR-75-1 (breast cancer); assay: as above; type: cell-based; conditions: Homo sapiens, ZR-75-1, 120 h, read-out: pIC50 ZR-75 (converted)
Protocol: as §1

[6] = tested on: hepatocellular carcinoma; conditions: adults with HCC; cited from earlier work

| Compound | IC50 [1] [nM] | IC50 [2] [nM] | IC50 [3] [nM] | IC50 [4] [nM] | IC50 [5] [nM] | efficacy in clinical trials, in words [6] | safety in clinical trials, in words [6] |
| --- | --- | --- | --- | --- | --- | --- | --- |
| CC[C@@]1(O)C(=O)OCc2c1cc1n(c2=O)Cc2c-1nc1cc(F)c(N)cc1c2CN=[N+]=[N-] [Compound 152, (S)-9-amino-11-(azidomethyl)-4-ethyl-8-fluoro-4-hydroxy-1,12-dihydro-14H-pyrano[3′,4′:6,7]indolizino[1,2-b]quinoline-3,14(4H)-dione] | 3.24 | 2.88 | 1.48 | 5.01 |  |  |  |
| CC[C@@]1(O)C(=O)OCc2c1cc1n(c2=O)Cc2c-1nc1cc(F)c(C)cc1c2CN1CCSCC1CO (stereo partly drawn) [Compound 114, (4S)-4-ethyl-8-fluoro-4-hydroxy-11-((3-(hydroxymethyl)thiomorpholino)methyl)-9-methyl-1,12-dihydro-14H-pyrano[3′,4′:6,7]indolizino[1,2-b]quinoline-3,14(4H)-dione] | 0.107 | 0.178 | 0.0933 | 0.417 |  |  |  |
| CC[C@@]1(O)C(=O)OCc2c1cc1n(c2=O)Cc2c-1nc1cc(F)c(C)cc1c2CN1C2CCC1(CO)CC2 [Compound 121] | 0.148 | 0.195 | 0.145 | 0.269 |  |  |  |
| CC[C@@]1(O)C(=O)OCc2c1cc1n(c2=O)Cc2c-1nc1cc(F)c(OC)cc1c2CNS(=O)(=O)c1ccc(N)cc1 [Compound 128, (S)-4-amino-N-((4-ethyl-8-fluoro-4-hydroxy-9-methoxy-3,14-dioxo-3,4,12,14-tetrahydro-1H-pyrano[3′,4′:6,7]indolizino[1,2-b]quinolin-11-yl)methyl)benzenesulfonamide] | 5.25 | 18.2 |  | 8.32 | 4.27 |  |  |
| CC[C@@]1(O)C(=O)OCc2c1cc1n(c2=O)Cc2c-1nc1cc(F)c(OC)cc1c2CNC(=O)NCc1ccc(N)cc1 [Compound 135, (S)-1-(4-aminobenzyl)-3-((4-ethyl-8-fluoro-4-hydroxy-9-methoxy-3,14-dioxo-3,4,12,14-tetrahydro-1H-pyrano[3′,4′:6,7]indolizino[1,2-b]quinolin-11-yl)methyl)urea] | 12.3 |  |  | 10.7 | 13.2 |  |  |
| CC[C@@]1(O)C(=O)OCc2c1cc1n(c2=O)Cc2c-1nc1cc(F)c(C)cc1c2CNS(=O)(=O)c1ccccc1 [Compound 125, (S)-N-((4-ethyl-8-fluoro-4-hydroxy-9-methyl-3,14-dioxo-3,4,12,14-tetrahydro-1H-pyrano[3′,4′:6,7]indolizino[1,2-b]quinolin-11-yl)methyl)benzenesulfonamide] | 1.32 | 7.08 | 2.82 | 3.8 | 1.32 |  |  |
| CC[C@@]1(O)C(=O)OCc2c1cc1n(c2=O)Cc2c-1nc1cc(F)c(C)cc1c2CNS(N)(=O)=O [Compound 131, (S)-((4-ethyl-8-fluoro-4-hydroxy-9-methyl-3,14-dioxo-3,4,12,14-tetrahydro-1H-pyrano[3′,4′:6,7]indolizino[1,2-b]quinolin-11-yl)methyl)sulfamide] | 1.05 |  | 9.12 | 9.12 | 0.955 |  |  |
| CC[C@@]1(O)C(=O)OCc2c1cc1n(c2=O)Cc2c-1nc1cc(F)c(C)cc1c2CN1CCO[C@@H](CO)C1 [Compound 113, (S)-4-ethyl-8-fluoro-4-hydroxy-11-(((R)-2-(hydroxymethyl)morpholino)methyl)-9-methyl-1,12-dihydro-14H-pyrano[3′,4′:6,7]indolizino[1,2-b]quinoline-3,14(4H)-dione] | 1.95 | 4.27 | 3.02 | 3.39 | 2.19 |  |  |
| CC[C@@]1(O)C(=O)OCc2c1cc1n(c2=O)Cc2c-1nc1cc(F)c(C)cc1c2CN1CCN(c2ccc(N)cc2)CC1 [Compound 108, (S)-11-((4-(4-aminophenyl)piperazin-1-yl)methyl)-4-ethyl-8-fluoro-4-hydroxy-9-methyl-1,12-dihydro-14H-pyrano[3′,4′:6,7]indolizino[1,2-b]quinoline-3,14(4H)-dione] | 29.5 | 55 | 40.7 | 47.9 | 18.6 |  |  |
| codrituzumab: "Codrituzumab, also known as GC33 or RG-7686"; antibody targeting GPC3 tested clinically "as a bivalent IgG"; "reference antibody codrituzumab" |  |  |  |  |  | limited efficacy | good safety profile |
| CC[C@@]1(O)C(=O)OCc2c1cc1n(c2=O)Cc2c-1nc1cc(F)c(C)cc1c2CNS(C)(=O)=O [Compound 122, (S)-N-((4-ethyl-8-fluoro-4-hydroxy-9-methyl-3,14-dioxo-3,4,12,14-tetrahydro-1H-pyrano[3′,4′:6,7]indolizino[1,2-b]quinolin-11-yl)methyl)methanesulfonamide] | 1.12 | 9.12 | 3.72 | 1.1 | 1.29 |  |  |
| CC[C@@]1(O)C(=O)OCc2c1cc1n(c2=O)Cc2c-1nc1cc(F)c(C)cc1c2CNS(=O)(=O)c1ccc(N)cc1 [Compound 127, (S)-4-amino-N-((4-ethyl-8-fluoro-4-hydroxy-9-methyl-3,14-dioxo-3,4,12,14-tetrahydro-1H-pyrano[3′,4′:6,7]indolizino[1,2-b]quinolin-11-yl)methyl)benzenesulfonamide] | 3.31 | 14.5 | 9.33 | 3.8 | 5.25 |  |  |
